According to patent publication US20170253581A1, “SUBSTITUTED HETEROCYCLES AS c-MYC TARGETING AGENTS” (Northwestern University, priority 2016, published 2017):

Assays:
[1] = target: Myc/Max binding to DNA (Homo sapiens, UniProt P01106); experiment: Electrophoretic mobility shift assay (EMSA) of Myc/Max binding to DNA; format: biochemical; conditions: for remaining activity at 100 µM: read-out: Bound DNA (%) (100uM); for remaining activity at 200 µM: 200 uM test compound, read-out: Bound DNA (%) (200uM); for remaining activity at 50 µM: 50 uM test compound, read-out: Bound DNA (%) (50uM)
Myc/Max binding to DNA, sequence (P01106 whole entry): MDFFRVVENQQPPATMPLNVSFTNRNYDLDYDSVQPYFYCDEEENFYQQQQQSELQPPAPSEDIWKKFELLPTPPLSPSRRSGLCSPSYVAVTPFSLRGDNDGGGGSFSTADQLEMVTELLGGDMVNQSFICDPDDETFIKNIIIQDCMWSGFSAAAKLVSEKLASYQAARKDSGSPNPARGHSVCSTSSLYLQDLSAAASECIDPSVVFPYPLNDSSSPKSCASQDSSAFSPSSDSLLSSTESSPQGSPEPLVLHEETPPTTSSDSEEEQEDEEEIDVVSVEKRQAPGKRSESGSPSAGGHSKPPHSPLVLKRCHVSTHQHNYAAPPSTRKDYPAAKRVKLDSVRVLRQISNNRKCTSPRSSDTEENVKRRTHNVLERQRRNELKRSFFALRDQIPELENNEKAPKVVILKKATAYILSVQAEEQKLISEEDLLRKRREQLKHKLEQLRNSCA
How it was run: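 Electrophoretic mobility shift assay of Myc/Max binding to DNA. Compounds tested at 200 μM, 100 μM and 50 μM.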

[2] = system: wild type and Myc knockout rat fibroblasts; experiment: Growth inhibition on wild type and Myc knockout rat fibroblasts; format: cell-based; conditions: FIG. 3; for selectivity of growth inhibition for Myc WT over Myc KO cells: wild type vs Myc knockout rat fibroblasts
From the text: We tested the top 13 active compounds in the first screen assay. […] More than half of the tested compounds show better growth inhibitory effect on Myc WT compared to Myc KO cells.

[3] = Pharmacokinetics in mice after intravenous dosing; format: in vivo; conditions: 5 mg/kg intravenously
Protocol: The pharmacokinetics of NUCC-176242 and NUCC-176248 were studied in mice by administering a dose of 5 mg/kg intravenously and measuring the plasma concentration versus time.

[4] = In vitro metabolism with mouse liver microsomes and mouse S9 fraction; format: in vitro ADME; conditions: compared with NUCC-176248
Protocol: In vitro metabolism of NUCC-176242 and NUCC-176248 were tested using mouse liver microsomes and a mouse S9 fraction.

[5] = system: DNA damage (rH2AX staining); experiment: rH2AX staining assay for DNA damage; format: cell-based
Protocol: Min9 (NUCC-0176234) was also tested for its ability to cause DNA damage in an rH2AX staining assay. We would not expect cMyc-targeting agents to produce significant DNA damage. Compounds that act directly against DNA such as doxorubicin do however. […] (See FIG. 6).

[6] = system: cMyc wild-type (WT) and a cMyc KO line; experiment: Cell viability assay against cMyc WT and cMyc KO line; format: cell-based; conditions: FIG. 4
Protocol: Min9 (NUCC-0176234) was also tested in a cell viability assay against a cMyc wild-type (WT) and a cMyc KO line.

remaining activity at 100 µM ([1]; EMSA, 100 uM test compound) [%] | remaining activity at 50 µM ([1]; EMSA) [%] | SMILES | further results
49 | – | CCc1ccc(Oc2c(-c3ccc(OCc4ccc(Cl)cc4)cc3O)nn(C)c2C(F)(F)F)cc1 [NUCC-0176248] | IC50 [1]: 96 µM; remaining activity at 200 µM ([1]; EMSA): 6%; effective concentration (dose with the greatest selectivity, growth inhibition Myc WT vs KO) [2]: 6 µM; selectivity of growth inhibition for Myc WT over Myc KO cells [2]: high specificity; in vivo metabolism (plasma concentration versus time) [3]: correlated well with the observed in vitro metabolism
36 | – | CCc1ccc(Oc2c(-c3ccc(OCc4ccc(Cl)cc4)cc3O)n[nH]c2C(F)(F)F)cc1 [NUCC-0176242] | IC50 [1]: 89 µM; remaining activity at 200 µM ([1]; EMSA): 2%; in vivo metabolism (plasma concentration versus time) [3]: correlated well with the observed in vitro metabolism; metabolism by mouse S9 fraction [4]: significantly metabolism by the mouse S9 fraction versus NUCC-176248
79 | – | CCc1ccc(Oc2c[nH]nc2-c2ccc(OCc3cnn(-c4ccccc4)c3)cc2O)cc1 [NUCC-0176234] | IC50 [1]: 123 µM; remaining activity at 200 µM ([1]; EMSA): 10%; DNA damage [5]: essentially no DNA damage; reduction of cell viability, WT vs KO line [6]: reduces cell viability much more in the WT line than the KO cells
44 | – | Cn1nc(C(F)(F)F)c(-c2ccccc2OC(F)(F)F)c1-c1ccc(OCc2ccc(Cl)cc2)cc1O [compound 0198410] | –
8 | 86 | Oc1ccc(-c2n[nH]c(C(F)(F)F)c2-c2cc(C(F)(F)F)cc(C(F)(F)F)c2)c(O)c1 [compound 0200495] | –
136 | – | Cn1nc(-c2ccc(OCc3ccc(Cl)cc3)cc2O)c(Br)c1C(F)(F)F [compound 0198408] | –
24 | 92 | Cn1nc(-c2ccc(Nc3ccc(Cl)cc3)cc2O)cc1C(F)(F)F [compound 0200492] | –
122 | – | CCc1ccc(Oc2c(-c3ccc(OCc4ccc(Cl)cc4)cc3)nn(C)c2C(F)(F)F)cc1 [compound 0196353] | –
91 | 89 | Oc1cc(OCc2ccc(Cl)cc2)ccc1-c1cc(C(F)(F)F)nc(-c2ccc(F)cc2)n1 [compound 0200503] | –
94 | – | Cc1c(-c2ccccc2)c(-c2ccc(OCc3ccc(Cl)cc3)cc2O)nn1C [compound 0198300] | –
118 | 109 | Cn1nc(-c2ccc(Nc3ccccn3)cc2O)cc1C(F)(F)F [compound 0200566] | –
81 | 98 | COc1ccc(-c2c(-c3ccc(O)cc3O)n[nH]c2C(F)(F)F)cc1OC [compound 0200496] | –
43 | 82 | Cn1nc(-c2ccc(OCc3ccc(Cl)cc3)cc2O)c(-c2ccc(C(F)(F)F)c(Cl)c2)c1C(F)(F)F [compound 0200729] | –
– | – | CCc1ccc(Oc2c(-c3ccc(OCc4ccncc4)cc3O)n[nH]c2C(F)(F)F)cc1 [NUCC-0176250] | remaining activity at 200 µM ([1]; EMSA): 57%; effective concentration (dose with the greatest selectivity, growth inhibition Myc WT vs KO) [2]: 50 µM; selectivity of growth inhibition for Myc WT over Myc KO cells [2]: great selectivity
– | – | CCc1ccc(Oc2c(-c3ccc(O)cc3O)nn(C)c2C(F)(F)F)cc1 [compound 0198411] | Bound DNA (%) (100uM) ([1]; EMSA, 100 uM test compound): 30%
97 | 94 | Cn1nc(C(F)(F)F)cc1-c1ccc(NCc2ccc(Cl)cc2)cn1 [compound 0200691] | –
93 | – | COc1ccccc1-c1cn(C)nc1-c1ccc(OCc2ccc(Cl)cc2)cc1O [compound 0198358] | –
89 | – | Cn1nc(-c2ccc(OCc3ccc(Cl)cc3)cc2O)c(-c2ccccc2)c1C(F)(F)F [compound 0198297] | –
96 | – | Cn1cc(-c2cccnc2)c(-c2ccc(OCc3ccc(Cl)cc3)cc2O)n1 [compound 0198321] | –
